{
  "source": "paper PMC10176470",
  "about": "“Engaging a Non-catalytic Cysteine Residue Drives Potent and Selective Inhibition of Caspase-6” (Journal of the American Chemical Society, 2023)",
  "assay_in_all_cases": "SILAC proteomics / in-gel fluorescence, competition of probe 13-t labeling by 3a",
  "key": {"[1]": {"target": "T1, proteins of HEK293T cells transiently overexpressing caspase-6 (Homo sapiens, UniProt O00410)", "T1 sequence (O00410 1-1097)": "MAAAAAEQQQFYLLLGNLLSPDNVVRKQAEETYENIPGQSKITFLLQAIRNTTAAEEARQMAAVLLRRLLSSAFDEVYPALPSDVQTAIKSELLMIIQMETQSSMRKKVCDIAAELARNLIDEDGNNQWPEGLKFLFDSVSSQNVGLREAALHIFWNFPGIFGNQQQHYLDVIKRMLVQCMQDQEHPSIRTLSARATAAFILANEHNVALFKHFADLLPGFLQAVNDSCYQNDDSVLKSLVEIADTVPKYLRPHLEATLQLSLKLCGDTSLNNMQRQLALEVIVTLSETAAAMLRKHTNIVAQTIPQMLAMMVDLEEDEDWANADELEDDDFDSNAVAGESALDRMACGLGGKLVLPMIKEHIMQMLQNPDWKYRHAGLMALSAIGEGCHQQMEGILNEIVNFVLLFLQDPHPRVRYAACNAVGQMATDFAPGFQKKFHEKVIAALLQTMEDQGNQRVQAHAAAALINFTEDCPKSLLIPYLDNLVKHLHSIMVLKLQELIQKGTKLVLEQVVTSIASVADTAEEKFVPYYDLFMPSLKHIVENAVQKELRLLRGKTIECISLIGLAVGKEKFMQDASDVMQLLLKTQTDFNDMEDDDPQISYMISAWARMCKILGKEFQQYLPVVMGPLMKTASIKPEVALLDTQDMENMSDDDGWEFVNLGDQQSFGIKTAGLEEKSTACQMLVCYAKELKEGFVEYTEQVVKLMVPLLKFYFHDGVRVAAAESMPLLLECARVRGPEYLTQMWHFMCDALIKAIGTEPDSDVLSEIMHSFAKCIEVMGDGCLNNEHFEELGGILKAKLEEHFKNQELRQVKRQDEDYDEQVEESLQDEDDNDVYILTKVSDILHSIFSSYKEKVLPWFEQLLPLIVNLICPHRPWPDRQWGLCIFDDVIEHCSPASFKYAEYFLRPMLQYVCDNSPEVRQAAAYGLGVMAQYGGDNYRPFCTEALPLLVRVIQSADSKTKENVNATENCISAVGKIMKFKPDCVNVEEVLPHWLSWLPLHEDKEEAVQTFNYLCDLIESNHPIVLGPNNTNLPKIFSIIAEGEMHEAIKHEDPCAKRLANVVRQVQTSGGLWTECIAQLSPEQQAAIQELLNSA", "method": "(§1) Cells were lysed, and heavy and light SILAC lysates were combined in a 1:1 ratio and subjected to CuAAC reaction with azido-biotin to biotinylate probe-labeled proteins for subsequent capture on streptavidin-coated beads. Bead-bound proteins were split for analysis by in-gel fluorescence and tryptic digestion on-bead for LC–MS/MS analysis.\n(§2) SILAC labeling and alkyne probe treatment: HEK293T cells were seeded into 8x 15 cm plates at\n(§3) a density of 500,000 cells/plate. 4 of these plates were grown in light SILAC DMEM and 4 were\n(§4) grown in heavy SILAC DMEM all containing 10% FBS and 4.5g/L glucose. The next day, all 8\n(§5) plates were transfected with a pCMV6-Entry plasmid coding for caspase-6-myc-DDK lacking the\n(§6) prodomain. After 24 hours, media was replaced with fresh SILAC growth media containing 4.5 g/L\n(§7) glucose and 3% FBS. 24 hours later the plates were treated with probe and inhibitor for 1 hours as\n(§8) follows: 2 of the light plates were treated with vehicle, 2 light plates and 2 heavy plates treated with\n(§9) for 60 minutes. After treatment, media was removed, and cells were washed with 15 mL PBS for 5\n(§10) minutes. Cells were then harvested by scraping in cold PBS and lysed in the presence of Roche\n(§11) complete protease inhibitors. Lysates were clarified by centrifugation at 10,000xg for 10 minutes and\n(§12) the protein in the supernatant was quantified by BCA assay.\n(§13) Proteomics assay: 1 mg of each lysate was diluted to 2mg/ml in PBS with Roche complete protease\n(§14) inhibitors. To this was added 0.1 mM biotin-azide, 1 mM tris(2-carboxyethyl)phosphine (TCEP), 0.1\n(§15) mM Tris((1-benzyl-4-triazolyl)methyl)amine (TBTA) ligand, and 1 mM CuSO4 in a final volume of\n(§16) 0.5 mL. The reaction was incubated at room temperature for 1 hour and was vortexed every 15\n(§17) minutes. After 1 hour, proteins are precipitated and are pelleted by centrifuging at 16,000xg for 4\n(§18) min at 4 °C. The supernatants were discarded, and the pellets were solubilized with 0.5 mL cold\n(§19) The cold methanol wash was then repeated, and the washed\n(§20) pellets were resuspended in 1 mL of 1.2% SDS and sonicated until clear. The samples were heat\n(§21) denatured at 80-90 °C for 5 minutes and any insoluble particles were removed by centrifugation at\n(§22) 6,500xg for 5 minutes. The 1 mL supernatant was transferred to a 15 mL conical tubes containing 5\n(§23) mL of PBS and 150 µL of washed neutravidin beads were added. The samples were incubated for 2\n(§24) hours at 4 °C while rotating, at which point the samples were warmed to resolubilize any precipitated\n(§25) SDS. The beads were pelleted by centrifugation at 1400xg for 3 min and washed for 10 minutes with\n(§26) the following solutions: 2x 1% NP-40, 2x PBS + 1 M NaCl, and 2x 50 mM ammonium bicarbonate\n(§27) (ABC) + 2 M urea. The beads were then transferred to a 1.5 mL microcentrifuge tube using 2x250\n(§28) µL 100 mM Tris pH 8.0 + 4 M Guanidium hydrochloride (final volume 500 µL)."}, "[2]": {"target": "proteins of HEK293T cells transiently overexpressing caspase-6 (Homo sapiens, UniProt P14625)", "sequence (P14625 22-803)": "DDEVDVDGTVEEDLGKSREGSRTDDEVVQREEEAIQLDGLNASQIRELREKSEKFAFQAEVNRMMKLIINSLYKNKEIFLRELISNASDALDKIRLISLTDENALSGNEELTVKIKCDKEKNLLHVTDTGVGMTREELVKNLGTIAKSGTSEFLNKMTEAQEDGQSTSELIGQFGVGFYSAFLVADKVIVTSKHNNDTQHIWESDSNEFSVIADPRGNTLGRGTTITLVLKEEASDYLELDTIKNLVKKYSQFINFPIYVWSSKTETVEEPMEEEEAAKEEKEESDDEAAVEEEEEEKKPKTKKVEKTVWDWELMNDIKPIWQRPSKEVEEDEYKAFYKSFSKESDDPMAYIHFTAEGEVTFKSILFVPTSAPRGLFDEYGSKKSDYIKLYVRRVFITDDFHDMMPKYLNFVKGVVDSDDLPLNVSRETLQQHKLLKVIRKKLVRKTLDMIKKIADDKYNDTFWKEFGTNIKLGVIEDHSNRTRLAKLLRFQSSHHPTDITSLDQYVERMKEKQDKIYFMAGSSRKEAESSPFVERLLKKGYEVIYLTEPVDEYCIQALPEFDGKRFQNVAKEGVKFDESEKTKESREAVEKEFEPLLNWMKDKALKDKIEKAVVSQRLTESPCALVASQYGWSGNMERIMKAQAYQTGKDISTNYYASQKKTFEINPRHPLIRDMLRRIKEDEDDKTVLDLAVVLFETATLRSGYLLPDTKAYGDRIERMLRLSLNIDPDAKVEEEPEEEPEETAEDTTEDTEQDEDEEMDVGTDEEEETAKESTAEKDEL", "settings": "Comp; protein HSP90B1 P14625", "method": "as §1, §2, §3, §4, §5, §6, §7, §8, §9, §10, §11, §12, §13, §14, §15, §16, §17, §18, §19, §20, §21, §22, §23, §24, §25, §26, §27, §28"}, "[3]": {"target": "proteins of HEK293T cells transiently overexpressing caspase-6 (Homo sapiens, UniProt P35998)", "sequence (P35998 whole entry)": "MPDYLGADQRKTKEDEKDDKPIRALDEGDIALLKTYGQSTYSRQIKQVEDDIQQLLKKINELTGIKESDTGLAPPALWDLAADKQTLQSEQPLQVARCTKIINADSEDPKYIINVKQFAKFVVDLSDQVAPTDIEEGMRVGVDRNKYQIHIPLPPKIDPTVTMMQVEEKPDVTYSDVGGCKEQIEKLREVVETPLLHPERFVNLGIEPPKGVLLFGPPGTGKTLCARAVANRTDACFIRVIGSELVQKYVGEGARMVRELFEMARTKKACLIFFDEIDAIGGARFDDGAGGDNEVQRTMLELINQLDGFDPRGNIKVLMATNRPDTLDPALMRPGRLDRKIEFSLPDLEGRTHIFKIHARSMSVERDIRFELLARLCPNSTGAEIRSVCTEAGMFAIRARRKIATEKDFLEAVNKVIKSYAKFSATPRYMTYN", "settings": "Comp; protein PSMC2 P35998", "method": "as §1, §2, §3, §4, §5, §6, §7, §8, §9, §10, §11, §12, §13, §14, §15, §16, §17, §18, §19, §20, §21, §22, §23, §24, §25, §26, §27, §28"}, "[4]": {"target": "proteins of HEK293T cells transiently overexpressing caspase-6 (Homo sapiens, UniProt P52272)", "sequence (P52272 whole entry)": "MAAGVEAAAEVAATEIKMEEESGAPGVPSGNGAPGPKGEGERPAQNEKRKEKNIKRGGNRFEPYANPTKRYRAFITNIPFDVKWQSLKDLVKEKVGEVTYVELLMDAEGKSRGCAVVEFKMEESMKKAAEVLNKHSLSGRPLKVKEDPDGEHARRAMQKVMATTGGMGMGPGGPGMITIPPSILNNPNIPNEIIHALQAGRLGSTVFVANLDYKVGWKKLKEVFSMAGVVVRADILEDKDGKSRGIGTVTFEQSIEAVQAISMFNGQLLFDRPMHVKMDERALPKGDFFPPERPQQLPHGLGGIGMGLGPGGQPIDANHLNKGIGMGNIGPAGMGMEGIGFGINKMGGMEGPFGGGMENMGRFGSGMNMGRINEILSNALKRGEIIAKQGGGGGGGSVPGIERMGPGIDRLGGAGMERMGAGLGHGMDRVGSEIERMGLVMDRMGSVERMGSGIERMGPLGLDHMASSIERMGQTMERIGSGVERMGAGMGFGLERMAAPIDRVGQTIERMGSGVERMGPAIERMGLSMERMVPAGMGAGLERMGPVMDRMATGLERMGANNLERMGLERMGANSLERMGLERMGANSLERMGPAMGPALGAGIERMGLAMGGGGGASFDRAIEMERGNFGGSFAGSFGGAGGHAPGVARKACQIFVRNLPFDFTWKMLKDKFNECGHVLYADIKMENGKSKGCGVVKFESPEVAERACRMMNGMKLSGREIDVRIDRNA", "settings": "Comp; protein HNRNPM P52272", "method": "as §1, §2, §3, §4, §5, §6, §7, §8, §9, §10, §11, §12, §13, §14, §15, §16, §17, §18, §19, §20, §21, §22, §23, §24, §25, §26, §27, §28"}, "[5]": {"target": "T2, proteins of HEK293T cells transiently overexpressing caspase-6 (Homo sapiens, UniProt P54136)", "T2 sequence (P54136 1-660)": "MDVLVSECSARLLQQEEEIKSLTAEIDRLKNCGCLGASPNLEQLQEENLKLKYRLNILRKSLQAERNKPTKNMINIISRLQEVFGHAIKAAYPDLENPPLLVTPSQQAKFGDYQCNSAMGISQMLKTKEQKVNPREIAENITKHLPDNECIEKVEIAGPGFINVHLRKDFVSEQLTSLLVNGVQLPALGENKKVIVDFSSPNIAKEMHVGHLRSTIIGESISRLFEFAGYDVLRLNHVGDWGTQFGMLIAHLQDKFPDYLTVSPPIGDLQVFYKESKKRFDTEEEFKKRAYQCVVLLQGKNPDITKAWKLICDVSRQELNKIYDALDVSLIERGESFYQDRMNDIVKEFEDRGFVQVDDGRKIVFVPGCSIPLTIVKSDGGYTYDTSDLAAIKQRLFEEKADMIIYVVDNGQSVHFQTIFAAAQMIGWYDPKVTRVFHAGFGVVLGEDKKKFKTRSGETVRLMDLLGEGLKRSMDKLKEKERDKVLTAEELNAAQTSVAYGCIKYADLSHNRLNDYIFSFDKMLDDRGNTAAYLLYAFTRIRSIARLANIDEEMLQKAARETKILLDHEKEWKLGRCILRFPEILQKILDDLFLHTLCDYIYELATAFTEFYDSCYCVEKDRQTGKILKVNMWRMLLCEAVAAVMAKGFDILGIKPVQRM", "method": "as §1, §2, §3, §4, §5, §6, §7, §8, §9, §10, §11, §12, §13, §14, §15, §16, §17, §18, §19, §20, §21, §22, §23, §24, §25, §26, §27, §28"}, "[6]": {"target": "T3, proteins of HEK293T cells transiently overexpressing caspase-6 (Homo sapiens, UniProt P62258)", "T3 sequence (P62258 1-255)": "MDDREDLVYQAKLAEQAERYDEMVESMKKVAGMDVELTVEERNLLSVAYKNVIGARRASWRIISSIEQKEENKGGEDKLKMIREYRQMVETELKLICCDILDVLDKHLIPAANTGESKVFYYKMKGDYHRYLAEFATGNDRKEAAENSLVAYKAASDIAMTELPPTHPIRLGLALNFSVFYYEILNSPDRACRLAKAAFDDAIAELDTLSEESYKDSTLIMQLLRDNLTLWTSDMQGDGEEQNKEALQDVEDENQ", "settings": "Comp; protein YWHAE P62258", "method": "as §1, §2, §3, §4, §5, §6, §7, §8, §9, §10, §11, §12, §13, §14, §15, §16, §17, §18, §19, §20, §21, §22, §23, §24, §25, §26, §27, §28"}, "[7]": {"target": "proteins of HEK293T cells transiently overexpressing caspase-6 (Homo sapiens, UniProt P62826)", "settings": "Comp; protein RAN P62826", "method": "as §1, §2, §3, §4, §5, §6, §7, §8, §9, §10, §11, §12, §13, §14, §15, §16, §17, §18, §19, §20, §21, §22, §23, §24, §25, §26, §27, §28"}, "[8]": {"target": "proteins of HEK293T cells transiently overexpressing caspase-6 (Homo sapiens, UniProt Q13838)", "sequence (Q13838 whole entry)": "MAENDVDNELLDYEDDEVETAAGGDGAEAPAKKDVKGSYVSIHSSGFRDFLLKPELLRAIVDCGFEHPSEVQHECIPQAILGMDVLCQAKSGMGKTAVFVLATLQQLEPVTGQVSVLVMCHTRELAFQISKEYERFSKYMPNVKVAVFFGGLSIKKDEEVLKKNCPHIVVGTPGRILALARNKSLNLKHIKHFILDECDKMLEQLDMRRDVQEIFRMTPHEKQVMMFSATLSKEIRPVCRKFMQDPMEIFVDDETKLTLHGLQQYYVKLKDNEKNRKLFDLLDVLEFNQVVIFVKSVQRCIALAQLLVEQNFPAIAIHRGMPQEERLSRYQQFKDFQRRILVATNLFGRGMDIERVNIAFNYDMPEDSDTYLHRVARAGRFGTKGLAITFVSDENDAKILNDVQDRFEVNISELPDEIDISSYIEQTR", "settings": "Comp; protein DDX39B Q13838", "method": "as §1, §2, §3, §4, §5, §6, §7, §8, §9, §10, §11, §12, §13, §14, §15, §16, §17, §18, §19, §20, §21, §22, §23, §24, §25, §26, §27, §28"}, "[9]": {"settings": "protein IPO5 (O00410), Exp Comp, analysis C6, p 0.0039, 9 peptides"}, "[10]": {"settings": "protein RARS (P54136), Exp Comp, analysis C6, p 0.0312, 7 peptides"}},
  "data": [
    {"smiles": "C=CS(=O)(=O)N1C[C@H](C(=O)Nc2ccc(OC(F)(F)F)cc2)C[C@@H](c2ccccc2)C1", "note": "[3a]", "values": [
      {"measurement": "enrich.exp.med", "setting": "[1]; Comp, protein IPO5 O00410", "result": 1},
      {"measurement": "enrich.exp.med.lin", "setting": "[1]; [9]", "result": 2},
      {"measurement": "enrich.exp.med.log2", "setting": "[1]; [9]", "result": 1},
      {"measurement": "enrich.exp.med", "setting": "[2]", "result": 0.7874},
      {"measurement": "enrich.exp.med", "setting": "[3]", "result": 0.924},
      {"measurement": "enrich.exp.med", "setting": "[4]", "result": 0.6442},
      {"measurement": "enrich.exp.med", "setting": "[5]; Comp, protein RARS P54136", "result": 1.077},
      {"measurement": "enrich.exp.med.lin", "setting": "[5]; [10]", "result": 2.11},
      {"measurement": "enrich.exp.med.log2", "setting": "[5]; [10]", "result": 1.077},
      {"measurement": "enrich.exp.med", "setting": "[6]", "result": 0.6349},
      {"measurement": "enrich.exp.med", "setting": "[7]", "result": 0.6474},
      {"measurement": "enrich.exp.med", "setting": "[8]", "result": 0.6915}
    ]}
  ]
}
